Assays:
[1] = tested on: Staphylococcus aureus adhering to reconstructed epidermis; assay type: cell-based; settings: for Reduction of log/control: reduction of decimal logarithm of mean number of viable Staphylococcus aureus adhering to reconstructed epidermis (EPISKIN) vs water, 25 mg fatty substance, 2 hours at 37° C., then 24 hours with bacteria
Method: Moreover, these fatty substances are such that the decimal logarithm of the mean number of viable bacteria adhering to reconstructed epidermis, after a test consisting in bringing the said epidermis into contact with the test compound for 2 hours at 37° C., is at least 0.3, preferably 0.5 and more preferably 1, less than that obtained by a test carried out with water under the same conditions.
The reconstructed epidermis used in the test indicated above is reconstructed human epidermis, equivalent to human skin, sold by EPISKIN.
The antiadhesion test corresponds to the protocol below:
Before bacterial adhesion, the reconstructed epidermis is brought into contact for 2 hours with 25 mg of the fatty substance to be tested at 37° C. 1 ml of bacterial suspension of Staphylococcus aureus at a concentration of 10^7 microorganisms/ml in Tryptone salt is then added thereto. After incubating for 24 hours at 37° C., the bacterial suspension is emptied and five rinsings are carried out with 1 ml of sterile distilled water. The epidermis, detached from its support, is then ground with the aid of a food processor in 18 ml of Tryptone salt. A decimal dilution is carried out on this suspension in Tryptone salt, and 1 ml of the dilution is then inoculated into 15 ml of Trypticase Soy agar and the medium is incubated for 24 hours at 37° C. The adherent and viable cells are then counted.
This antiadhesion test makes it possible to evaluate the efficacy of molecules alone or of finished products.
(§1) The figures presented opposite the fatty substance correspond to the reduction of the decimal logarithm of the mean number of viable Staphylococcus aureus adhering to reconstructed epidermis after treatment with the fatty substance under the conditions defined by the preceding test compared with the decimal logarithm of the mean number of viable Staphylococcus aureus adhering to reconstructed epidermis after treatment with water under the same conditions.
as §1, with “value” for “reduction”

[2] = interfacial tension of the fatty substance; assay type: physicochemical

| Molecule | Reduction of log/control [1] | Interfacial tension [2] [mN/m] | Log measured ([1]; decimal logarithm of viable adhering Staphylococcus aureus compared with water control, the printed number is an increase /control, same test conditions) |
| --- | --- | --- | --- |
| CCCCCCCCOC(=O)CCCCC(=O)OCCCCCCCC [Dioctyl adipate] | 0.9 | – | – |
| CCCCCCCCCCCCCCCC(=O)OC(C)C [Isopropyl palmitate] | 1.07 | – | – |
| CCCCCCCCCCCCCCCCCCCCCC(=O)OCC(O)COCC(CC)CCCC (centres unmarked) [Octoxyglyceryl behenate] | 2.59 | – | – |
| CCCCCCCCCCCCCCCC(=O)OCC(O)COCC(CC)CCCC (centres unmarked) [Octoxyglyceryl palmitate] | 1.85 | – | – |
| CC(C)CCCC(C)CCCC(C)CCCCC(C)CCCC(C)CCCC(C)C (centres unmarked) [Squalane, reference compound] | – | 46 | 0.27/control |
| Di(C12-13 alkyl) malate | 3.68 | – | – |
| Tartrate of branched C12-C13 dialcohols | 2.31 | – | – |
